As a reminder, the IC50 is the concentration at which inhibition is half-maximal.

Where a name gives a salt, the structure may show the parent alone.

In one test the test system is 5HT uptake. Description: Inhibition of 5HT uptake in vitro (synaptosomal uptake of 3H-serotonin, rat cortical synaptosomes). In kind it is biochemical, rat (male Sprague-Dawley). As to conditions: 50 nM 3H-5HT, cortical synaptosomes, 37° C., 5 min. On the procedure: This general procedure is set forth by Wong et al., in Drug Development Research 6:397-403 (1985).
Male Sprague-Dawley rats (110-150 g) from Harlan Industries (Cumberland, Ind.) were fed Purina Chow ad libitum for at least 3 days before being used in the studies. Rats were killed by decapitation. Whole brains were removed and dissected. Cerebral cortex was homogenized in 9 volumes of a medium containing 0.32M sucrose and 10 mM glucose. Crude synaptosomal preparations were isolated after differential centrifugation at 1,000 g for 10 min. and 17,000 g for 28 min. The final pellets were suspended in the same medium and kept in ice until use within the same day.
Synaptosomal uptake of ^3 H-serotonin(^3 H-5-hydroxytryptamine, ^3 H-5HT) was determined as follows. Cortical synaptosomes (equivalent to 1 mg of protein) were incubated at 37° C. for 5 min in 1 ml of Krebs-bicarbonate medium containing also 10 mM glucose, 0.1 mM iproniazid, 1 mM ascorbic acid, 0.17 mM EDTA and 50 nM ^3 H-5HT The reaction mixture was immediately diluted with 2 ml of ice-chilled Krebs-bicarbonatebuffer and filtered under vacuum with a cell harvester (Brandel, Gaithersburg, Md.). Filters were rinsed twice with approximately 5 ml of ice-chilled 0.9% saline and were transferred to a counting vial containing 10 ml of scintillation fluid (PCS, Amersham, Arlington Heights, Ill.). Radioactivity was measured by a liquid scintillation spectrophotometer. Accumulation of ^3 H-5HT at 4° C. represented the background and was subtracted from all samples.
The numbers in parentheses represent percent inhibition at 1000 nM.
`CN(C)C(CCOc1cccc2ccccc12)c1ccccc1Cl` (stereo not shown) [Example 11, N,N-Dimethyl-1-(2-chlorophenyl)-3-(1-naphthalenyloxy)propanamine oxalate] yielded an IC50 of 33 nM. The same measure, in the same setting: with `COc1ccc(OCCC(c2ccccc2)N(C)C)c2ccccc12` (stereo not shown) [Example 5, N,N-Dimethyl-1-phenyl-3-(4-methoxy-1-naphthalenyloxy)propanamine oxalate] the figure was 210 nM.

Compound `CNC(CCOc1cccc2ccccc12)c1ccc2c(c1)OCO2` (stereo not shown) [Example 24, oxalate] returned an IC50 of 47 nM. On the same count and under the same terms, the value for `COc1ccccc1C(CCOc1cccc2ccccc12)N(C)C` (stereo not shown) [Example 21, N,N-Dimethyl-1-(2-methoxyphenyl)-3-(1-naphthalenyloxy)propanamine oxalate] was 16 nM; that for `CN(C)C(CCOc1cccc2ccccc12)c1ccccc1C(F)(F)F` (stereo not shown) [Example 7, N,N-Dimethyl-1-[2-(trifluoromethyl)phenyl]-3-(1-naphthalenyloxy)propanamineoxalate] was 260 nM; that for `NC(CCOc1cccc2ccccc12)c1ccccc1C(F)(F)F` (stereo not shown) [Example 6, 1-[2-(Trifluoromethyl)phenyl]-3-(1-naphthalenyloxy)propanamine oxalate] was 180 nM. On the same count and under the same terms, the value for `CN(C)C(CCOc1cccc2ccccc12)c1ccc(F)cc1` (stereo not shown) [Example 25, N,N-Dimethyl-1-(4-fluorophenyl)-3-(1-naphthalenyloxy)propanamine oxalate] was 50 nM; that for `CN(C)C(CCOc1cccc2ccccc12)c1cccc(C(F)(F)F)c1` (stereo not shown) [Example 9, N,N-Dimethyl-1-[3-(trifluoromethyl)phenyl]-3-(1-naphthalenyloxy)propanamineoxlate] was 500 nM.

For `CN(C)C(CCOc1cccc2ccccc12)c1ccc(Cl)cc1` (stereo not shown) [Example 15, N,N-Dimethyl-1-(4-chlorophenyl)-3-(1-naphthalenyloxy)propanamine oxalate], the midpoint of inhibition, the IC50, lay at 110 nM.

`Cc1ccccc1C(CCOc1cccc2ccccc12)N(C)C` (stereo not shown) [Example 30, N,N-Dimethyl-1-(2-methylphenyl)-3-(1-naphthalenyloxy)propanamine oxalate] had an IC50 of 10 nM. Same read-out and setting: the value for `COc1ccc(C(N)CCOc2cccc3ccccc23)cc1` (stereo not shown) [Example 16, 1-(4-Methoxyphenyl)-3-(1-naphthalenyloxy)propanamine oxalate] was 100 nM; that for `CN(C)C(CCOc1ccc(Cl)c2ccccc12)c1ccccc1` (stereo not shown) [Example 34, N,N-Dimethyl-1-phenyl-3-(4-chloro-1-naphthalenyloxy)propanamine oxalate] was 88 nM. The same measure, in the same setting: with `NC(CCOc1cccc2ccccc12)c1ccccc1Cl` (stereo not shown) [Example 10, 1-(2-Chlorophenyl)-3-(1-naphthalenyloxy)propanamine oxalate] the figure was 76 nM; with `Cc1cccc(C(CCOc2cccc3ccccc23)N(C)C)c1` (stereo not shown) [Example 32, N,N-Dimethyl-1-(3-methylphenyl)-3-(1-naphthalenyloxy)propanamine oxalate], 13 nM. The same measure, in the same setting: with `COc1cccc(C(CCOc2cccc3ccccc23)N(C)C)c1` (stereo not shown) [Example 19, N,N-Dimethyl-1-(3-methoxyphenyl)-3-(1-naphthalenyloxy)propanamine oxalate] the figure was 29 nM.

Compound `CN(C)C(CCOc1cccc2ccccc12)c1ccccc1` (single isomer, unassigned) [Example 37, (-)-N,N-Dimethyl-1-phenyl-3-(1-naphthalenyloxy)propanamine (-)-tartrate] had a half-maximal inhibitory concentration (IC50) of 35 nM. Same read-out and setting: the value for `Cc1ccc(OCCC(N)c2ccccc2)c2ccccc12` (stereo not shown) [Example 1, 1-Phenyl-3-(4-methyl-1-naphthalenyloxy)propanamine oxalate] was 90 nM. In turn, `Cc1ccc(C(CCOc2cccc3ccccc23)N(C)C)cc1` (stereo not shown) [Example 26, N,N-Dimethyl-1-(4-methylphenyl)-3-(1-naphthalenyloxy)propanamine oxalate] registered a half-maximal inhibitory concentration (IC50) of 80 nM. Compound `CNC(CCOc1cccc2ccccc12)c1ccccc1` (stereo not shown) [Example 33, N-Methyl-1-phenyl-3-(1-naphthalenyloxy)propanamine oxalate] yielded an IC50 of 35 nM. Turning to `COc1cccc(C(N)CCOc2cccc3ccccc23)c1` (stereo not shown) [Example 18, 1-(3-Methoxyphenyl)-3-(1-naphthalenyloxy)propanamine hydrochloride], the IC50 was 84 nM. The compound `NC(CCOc1cccc2ccccc12)c1cccc(Cl)c1` (stereo not shown) [Example 12, 1-(3-Chlorophenyl)-3-(1-naphthalenyloxy)propanamine oxalate] showed an IC50 of 150 nM. The same measure, in the same setting: the value for `CN(C)C(CCOc1cccc2ccccc12)c1ccc(C(F)(F)F)cc1` (stereo not shown) [Example 31, N,N-Dimethyl-1-[4-(trifluoromethyl)phenyl]-3-(1-naphthalenyloxy)propanamineoxalate] was 195 nM; that for `CNC(CCOc1ccc(C)c2ccccc12)c1ccccc1` (stereo not shown) [Example 3, N-Methyl-1-phenyl-3-(4-methyl-1-naphthalenyloxy)propanamine oxalate] was 37 nM. Still for that read-out and setting: with `CN(C)C(CCOc1ccc(C(F)(F)F)c2ccccc12)c1ccccc1` (stereo not shown) [Example 29, N,N-Dimethyl-1-phenyl-3-[4-(trifluoromethyl)-1-naphthalenyloxy)propanamine oxalate] the figure was 800 nM. The same measure, in the same setting: with `CN(C)C(CCOc1cccc2ccccc12)c1ccccc1` (stereo not shown) [Example 27, N,N-Dimethyl-1-phenyl-3-(1-naphthalenyloxy)propanamine oxalate] the figure was 10 nM; with `NC(CCOc1cccc2ccccc12)c1ccc(Cl)cc1` (stereo not shown) [Example 14, 1-(4-Chlorophenyl)-3-(1-naphthalenyloxy)propanamine oxalate], 400 nM. As for `NC(CCOc1cccc2ccccc12)c1ccccc1` (stereo not shown) [Example 35, 1-Phenyl-3-(1-naphthalenyloxy)propanamine oxalate], the IC50 was 80 nM. Still for that read-out and setting: with `CN(C)C(CCOc1cccc2ccccc12)c1cccc(Cl)c1` (stereo not shown) [Example 13, N,N-Dimethyl-1-(3-chlorophenyl)-3-(1-naphthalenyloxy)propanamine oxalate] the figure was 72 nM; with `CN(C)C(CCOc1cccc2ccccc12)c1ccccc1` (single isomer, unassigned) [Example 36, (+)-N,N-Dimethyl-1-phenyl-3-(1-naphthalenyloxy)propanamine (+)-tartrate], 10 nM; with `Cc1ccc(OCCC(c2ccccc2)N(C)C)c2ccccc12` (stereo not shown) [Example 2, N,N-Dimethyl-1-phenyl-3-(4-methyl-1-naphthalenyloxy)propanamine oxalate], 25 nM. Same read-out and setting: with `COc1ccc(C(CCOc2cccc3ccccc23)N(C)C)cc1` (stereo not shown) [Example 17, N,N-Dimethyl-1-(4-methoxyphenyl)-3-(1-naphthalenyloxy)propanamine oxalate] the figure was 32 nM.

Still in this test, the particulars now being: at 1000 nM; numbers in parentheses; 50 nM 3H-5HT, 37° C., 5 min.
For the compound `COc1ccccc1C(N)CCOc1cccc2ccccc12` (stereo not shown) [Example 20, 1-(2-Methoxyphenyl)-3-(1-naphthalenyloxy)propanamine oxalate], the “percent inhibition at 1000 nM” value is 25%. The same measure, in the same setting: with `NC(CCOc1cccc2ccccc12)c1cccc(C(F)(F)F)c1` (stereo not shown) [Example 8, 1-[3-(Trifluoromethyl)phenyl]-3-(1-naphthalenyloxy)propanamine oxalate] the figure was 43%; with `COc1ccc(OCCC(N)c2ccccc2)c2ccccc12` (stereo not shown) [Example 4, 1-Phenyl-3-(4-methoxy-1-naphthalenyloxy)propanamine oxalate], 39%.

These data come from US5135947A, “1-phenyl-3-naphthalenyloxypropanamines and their use as selective serotonin reuptake inhibitors” (Eli Lilly and Company, priority 1990, dated 1992).
